Measured values from patent publication US11053204B2, “Pyrimidinyloxy benzene derivatives as herbicides” (FMC Corporation, priority 2015, dated 2021).

Legend:
Type in all cases: in vivo
kochia (Kochia scoparia) = assay: Test A postemergence, visual injury rating; details: Bassia scoparia, post-emergence, 240 h, 0 is no effect, 100 is complete control, read-out: Kochia plant response rating (0 to 100 scale)
Method in brief: (§1)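 Scoring: eye-based comparison with untreated controls, 0 for no effect through 100 for complete control, at about day 10. Treatments: directed soil spray preemergence; foliar spray postemergence on 2–10 cm plants at the one- to two-leaf stage. Medium: loam soil with sand.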

[1] = system: wheat (Triticum aestivum); assay: Test A postemergence, visual injury rating; details: Triticum aestivum, post-emergence, 240 h, 0 is no effect, 100 is complete control, read-out: Wheat plant response rating (0 to 100 scale)
Method in brief: as §1

corn (Zea mays) = assay: Test A postemergence, visual injury rating; details: Zea mays, post-emergence, 240 h, 0 is no effect, 100 is complete control, read-out: Corn plant response rating (0 to 100 scale)
Method in brief: as §1

[2] = system: Italian ryegrass (Lolium multiflorum); assay: Test A postemergence, visual injury rating; details: Lolium multiflorum, post-emergence, 240 h, 0 is no effect, 100 is complete control, read-out: Ryegrass, Italian plant response rating (0 to 100 scale)
Method in brief: as §1

[3] = system: blackgrass (Alopecurus myosuroides); assay: Test A postemergence, visual injury rating; details: Alopecurus myosuroides, post-emergence, 240 h, 0 is no effect, 100 is complete control, read-out: Blackgrass plant response rating (0 to 100 scale)
Method in brief: as §1

[4] = system: giant foxtail (Setaria faberii); assay: Test A postemergence, visual injury rating; details: Setaria faberi, post-emergence, 240 h, 0 is no effect, 100 is complete control, read-out: Foxtail, Giant plant response rating (0 to 100 scale)
Method in brief: as §1

[5] = system: ragweed (common ragweed, Ambrosia elatior); assay: Test A postemergence, visual injury rating; details: Ambrosia artemisiifolia, post-emergence, 240 h, 0 is no effect, 100 is complete control, read-out: Ragweed plant response rating (0 to 100 scale)
Method in brief: as §1

[6] = system: barnyardgrass (Echinochloa crus-galli); assay: Test A postemergence, visual injury rating; details: Echinochloa crus-galli, post-emergence, 240 h, 0 is no effect, 100 is complete control, read-out: Barnyardgrass plant response rating (0 to 100 scale)
Method in brief: as §1

[7] = system: galium (catchweed bedstraw, Galium aparine); assay: Test A postemergence, visual injury rating; details: Galium, post-emergence, 240 h, 0 is no effect, 100 is complete control, read-out: Galium plant response rating (0 to 100 scale)
Method in brief: as §1

[8] = system: pigweed (Amaranthus retroflexus); assay: Test A postemergence, visual injury rating; details: Amaranthus retroflexus, post-emergence, 240 h, 0 is no effect, 100 is complete control, read-out: Pigweed plant response rating (0 to 100 scale)
Method in brief: as §1

[9] = system: lambsquarters (Chenopodium album); assay: Test C postemergence, plant response rating; details: Chenopodium album, post-emergence
Source text: (§2) Seeds of plant species selected from blackgrass (Alopecurus myosuroides), ryegrass, Italian (Italian ryegrass, Lolium multiflorum), wheat (winter wheat, Triticum aestivum), galium (catchweed bedstraw, Galium aparine), corn (Zea mays), crabgrass, large (large crabgrass, Digitaria sanguinalis), foxtail, giant (giant foxtail, Setaria faberii), johnsongrass (Sorghum halepense), lambsquarters (Chenopodium album), morningglory (Ipomoea coccinea), nutsedge, yellow (yellow nutsedge, Cyperus esculentus), pigweed (Amaranthus retroflexus), ragweed (common ragweed, Ambrosia elatior), soybean (Glycine max), barnyardgrass (Echinochloa crus-galli), oilseed rape (Brassica napus), pigweed, palmer (palmer pigweed, Amaranthus palmeri), waterhemp (common waterhemp, Amaranthus rudis), velvetleaf (Abutilon theophrasti), kochia (Kochia scoparia), surinam grass (Brachiaria decumbens), nightshade (eastern black nightshade, Solanum ptycanthum), wild poinsettia (Euphorbia heterophylla), windgrass (Apera spica-venti), and oat, wild (wild oat Avena fatua), were planted into a blend of loam soil and sand or a silt loam soil and treated preemergence with test chemicals formulated in a non-phytotoxic solvent mixture which included a surfactant.
(§3) At the same time, plants selected from these crop and weed species and also chickweed (common chickweed, Stellaria media), buckwheat, wild (wild buckwheat, Polygonum convolvulus), wild mustard (Sinapis arvensis), field poppy (Papaver rhoeas), field violet (Viola arvensis), geranium, cutleaf (cutleaf geranium, Geranium dissectum), Canada thistle (Cirsium arvense), and speedwell (bird's-eye speedwell, Veronica persica), were planted in pots containing Sunshine Redi-Earth® planting medium comprising spaghnum peat moss, vermiculite, starter nutrients and dolomitic limestone and treated with postemergence applications of test chemicals formulated in the same manner. Plants ranged in height from 2 to 18 cm (1- to 4-leaf stage) for postemergence treatments. Treated plants and controls were maintained in a greenhouse for 13 to 15 d, after which time all species were compared to controls and visually evaluated. Plant response ratings, summarized in Table C, are based on a scale of 0 to 100 where 0 is no effect and 100 is complete control. A dash (-) response means no test result.

soybean (Glycine max) = assay: Test C postemergence, plant response rating; details: Glycine max, post-emergence
Source text: as §2, §3

[10] = system: ryegrass, Italian (Italian ryegrass, Lolium multiflorum); assay: Test C postemergence, plant response rating; details: Lolium multiflorum, post-emergence
Source text: as §2, §3

[11] = system: oat, wild (wild oat Avena fatua); assay: Test C postemergence, plant response rating; details: Avena fatua, post-emergence
Source text: as §2, §3

[12] = system: ragweed (common ragweed, Ambrosia elatior); assay: Test C postemergence, plant response rating; details: Ambrosia artemisiifolia, post-emergence
Source text: as §2, §3

[13] = system: chickweed (common chickweed, Stellaria media); assay: Test C postemergence, plant response rating; details: Stellaria media, post-emergence
Source text: as §2, §3

[14] = system: velvetleaf (Abutilon theophrasti); assay: Test C postemergence, plant response rating; details: Abutilon theophrasti, post-emergence
Source text: as §2, §3

[15] = system: foxtail, giant (giant foxtail, Setaria faberii); assay: Test C postemergence, plant response rating; details: Setaria faberi, post-emergence
Source text: as §2, §3

[16] = 62 g ai/ha, scale 0 to 100 (0 no effect, 100 complete control)
[17] = 125 g ai/ha, scale 0 to 100 (0 no effect, 100 complete control)

Work on `O=C(OCCC(F)(F)F)c1c(Cl)cccc1Oc1ncc(Cl)cn1` [Compound 15, 3,3,3-trifluoropropyl 2-chloro-6-[(5-chloro-2-pyrimidinyl)oxy]benzoate] yielded a pest or weed control at 125 g/ha (kochia (Kochia scoparia); 125 g ai/ha) of 100%, a pest or weed control at 500 g/ha (kochia (Kochia scoparia); 500 g ai/ha) of 100% and a plant injury at 125 g/ha ([1]; 125 g ai/ha) of 20%. For the same compound, the plant injury at 500 g/ha ([1]; 500 g ai/ha) was 100%, the plant injury at 125 g/ha (corn (Zea mays); 125 g ai/ha) was 50% and the plant injury at 500 g/ha (corn (Zea mays); 500 g ai/ha) was 90%. For the same compound, the pest or weed control at 125 g/ha ([2]; 125 g ai/ha) was 60%, the pest or weed control at 500 g/ha ([2]; 500 g ai/ha) was 90% and the pest or weed control at 125 g/ha ([3]; 125 g ai/ha) was 90%. For the same compound, the pest or weed control at 500 g/ha ([3]; 500 g ai/ha) was 100%, the pest or weed control at 125 g/ha ([4]; 125 g ai/ha) was 90% and the pest or weed control at 500 g/ha ([4]; 500 g ai/ha) was 100%. It also gave a pest or weed control at 125 g/ha ([5]; 125 g ai/ha) of 20%, a pest or weed control at 500 g/ha ([5]; 500 g ai/ha) of 40% and a pest or weed control at 125 g/ha ([6]; 125 g ai/ha) of 90%. It also gave a pest or weed control at 500 g/ha ([6]; 500 g ai/ha) of 100%, a pest or weed control at 125 g/ha ([7]; 125 g ai/ha) of 100% and a pest or weed control at 500 g/ha ([7]; 500 g ai/ha) of 100%. It also gave a pest or weed control at 125 g/ha ([8]; 125 g ai/ha) of 100%, a pest or weed control at 500 g/ha ([8]; 500 g ai/ha) of 100% and a pest or weed control at 16 g/ha ([9]; 16 g ai/ha, scale 0 to 100) of 70%. For the same compound, the pest or weed control at 31 g/ha ([9]; 31 g ai/ha, scale 0 to 100) was 75%, the pest or weed control at 62 g/ha [9, 16] was 75% and the pest or weed control at 125 g/ha [9, 17] was 95%. For the same compound, the plant injury at 16 g/ha (soybean (Glycine max); 16 g ai/ha, scale 0 to 100) was 45%, the plant injury at 31 g/ha (soybean (Glycine max); 31 g ai/ha, scale 0 to 100) was 45% and the plant injury at 62 g/ha (soybean (Glycine max); [16]) was 80%. The plant injury at 125 g/ha (soybean (Glycine max); [17]) was 90%, the pest or weed control at 16 g/ha ([10]; 16 g ai/ha, scale 0 to 100) was 0% and the pest or weed control at 31 g/ha ([10]; 31 g ai/ha, scale 0 to 100) was 5%. The pest or weed control at 62 g/ha [10, 16] was 10%, the pest or weed control at 125 g/ha [10, 17] was 5% and the pest or weed control at 16 g/ha ([11]; 16 g ai/ha, scale 0 to 100) was 5%. It also gave a pest or weed control at 31 g/ha ([11]; 31 g ai/ha, scale 0 to 100) of 5%, a pest or weed control at 62 g/ha [11, 16] of 5% and a pest or weed control at 125 g/ha [11, 17] of 10%. The pest or weed control at 16 g/ha ([12]; 16 g ai/ha, scale 0 to 100) was 30%, the pest or weed control at 31 g/ha ([12]; 31 g ai/ha, scale 0 to 100) was 40% and the pest or weed control at 62 g/ha [12, 16] was 50%. For the same compound, the pest or weed control at 125 g/ha [12, 17] was 65%, the pest or weed control at 16 g/ha ([13]; 16 g ai/ha, scale 0 to 100) was 35% and the pest or weed control at 31 g/ha ([13]; 31 g ai/ha, scale 0 to 100) was 80%. For the same compound, the pest or weed control at 62 g/ha [13, 16] was 90%, the pest or weed control at 125 g/ha [13, 17] was 90% and the pest or weed control at 16 g/ha ([14]; 16 g ai/ha, scale 0 to 100) was 50%. The pest or weed control at 31 g/ha ([14]; 31 g ai/ha, scale 0 to 100) was 50%, the pest or weed control at 62 g/ha ([14]; 62 g ai/ha, scale 0 to 100 (0 no effect, 100 complete control), read-out: Velvetleaf plant response rating) was 60% and the pest or weed control at 125 g/ha [14, 17] was 85%. It also gave a pest or weed control at 16 g/ha ([15]; 16 g ai/ha, scale 0 to 100) of 25%, a pest or weed control at 31 g/ha ([15]; 31 g ai/ha, scale 0 to 100) of 30% and a pest or weed control at 62 g/ha [15, 16] of 20%. The pest or weed control at 125 g/ha [15, 17] was 35%.
